Oligonucleotides are written 5' to 3', each unit as a sugar letter and its base; * is a phosphorothioate linkage, no mark a phosphodiester; rarer units and linkages stand in square brackets, end groups in braces. Plain capitals give the bases only. {Chol} = cholesterol; m = 2'-O-methyl
Tests used:
CL1-5-F4 cells = assay: Late-stage metastasis model, intravenous injection of tumor cells; format: in vivo, mice; conditions: 3 months after i.v. cell injection, tail vein treatments, P=0.018
Text: CL1-5 cells with scramble antagomir (NC) or miR-135 antagomir (Antago-135b) were intravenously injected to assess the effect of antagomir on late-stage metastasis (n=9). Representative average of visible metastatic lung nodules and H&E staining (right). Data are expressed as the mean±s.e.m. *P<0.05 by Student's t-test.
Animals were housed in a specific-pathgen-free environment in the animal facility of the Institute of Biomedical Sciences, Academia Sinica. All experimental procedures were in compliance with the Academia Sinica IACUC and Council of Agriculture Guidebook for the Care and Use of Laboratory Animals. For intravenous injections of the tumor cells, 1×10^6 cells were suspended in 0.1 mL of phosphate-buffered saline (PBS) and injected into lateral tail vein of SCID mice (10 mice per group). […] For the subcutaneous tumor assay, 1×10^6 CL1-0 cells or 2×10^5 H441 cells were subcutaneously injected in 0.1 mL of PBS into male nude mice (n=8 per group) and allowed to grow for 35 days to reach a volume of 50-200 mm^3 Control antagomir (Scramble) or anti-miR-135b antagomir (antago-135) was intravenously injected at a concentration of 10 μM in 0.1 mL of PBS 4 days after the cells were implanted. […]
The impact of the antagomir during the late stages in metastasis was determined, such as extravasation and colonization. […]

CL1-5 cells = assay: Orthotopic lung cancer model; format: in vivo, nude mice
Method: CL1-5 cells were implanted orthotopically into the left lungs of 6-weeks-old nude mice (n=9). A series of scramble antagomir (NC) or miR-135b antagomir (Antago-135b) intravenous injections were performed every 2 days after tumor cell implantation. Lungs were harvested 25 days after the cells were implanted. […] Arrows indicate the visible nodules. […] Data are expressed as mean±s.e.m. *P<0.05 by Student's t-test.
Mice bearing CL1-5 cells were subjected to scramble antagomir (NC) or miR-135b antagomir (Antago-135b) treatment. Animal survival was determine using Kaplan-Meier survival analysis and the log-rank test for data obtained 25 days after the cancer cells were orthotopically injected (n=9).
Next, the effects of miR-135b inhibition on tumor growth and metastasis in an orthotopic lung cancer model were checked. Seven intravenous injections of miR-135b antagomir were given 4 days after CL1-5 implantation.

[1] = test system: pGL3-3′-UTRs of Hippo pathway genes; assay: Luciferase reporter assay, Hippo pathway 3'-UTRs; format: cell-based; conditions: CL1-0 cells co-transfected with miR-135b and pGL3-3′-UTRs, 60 hours
Method: CL1-0 cells co-transfected with miR-135b and pGL3-3′-UTRs with scramble (NC) or Antago-135b for 60 hours. Luciferase activity was assayed and is presented a described in FIG. 6a. Mean±s.d. is shown, *P<0.05; **P<0.005 by Student's t-test.
One day before transfection, CL1-0 cells were seeded at a concentration of 2.5×10^4 per well. Next, the pClneo vector or miR-135b plasmid was co-transfected with the pGL3-target gene-3′UTR. The Renilla lunciferase plasmid (phRL-TK, Promega, Madison, Wis.) was co-transfected as transfection control. Cells were lysed 36 hours after transfection, and luciferase activity was measured using a Dual-Luciferase system (Promega, Madison, Wis.) according to the manufacture's protocol.

[2] = seven i.v. injections, 4 days after CL1-5 implantation, vs control lungs

## 5′mU(*)mC(*)mAmCmAmUmAmG-mGmAmAmUmGmAmAmAmAmGmCmC(*)mA(*)mU(*)mA(*)(3′-Ch1)3′ (SEQ ID NO:8) (mU*mC*mAmCmAmUmAmGmGmAmAmUmGmAmAmAmAmGmCmC*mA*mU*mA*{Chol}) [miR-135b antagomir]
CL1-5-F4 cells
  metastatic lung nodules vs control group: eight-fold fewer
CL1-5 cells; [2]
  orthotopic tumor growth: inhibited orthotopic tumor growth
  volume of lung metastases: decrease the volume of lung metastases
CL1-5 cells; systemic delivery in orthotopic tumor-bearing mice
  survival rates: increased survival rates
[1]
  miR-135b-induced reporter activity: decrease
